How the values were obtained:
[1] = tested on: hPSC-derived MPPs differentiating into NGN3+ / CHGA+ endocrine progenitors; experiment: Endocrine specification of MPPs at stage 5, flow cytometry and qPCR; assay type: cell-based, human; conditions: for CHGA+/NKX6-1+ endocrine progenitor cells by the end of stage 5: assayed at stage 5, day 7
Procedure: (§1) Differentiations into SC-β cells were performed following a protocol described in [3] and as follows: HUES8 or 1016 cells were seeded at 6×10^5 cells/mL in mTeSR1 media and […] Y27632 (Sigma-Aldrich). The media was changed 48 h later and the differentiations were started 72 h after the cells were seeded. The media changes were as follows:
(§2) Stage 5 EN: Days 14 and 16: S5+0.25 μM Sant1+100 nM RA+1 μM XXI (EMD Millipore)+10 μM Alk5i II (Axxora)+1 μM T3 (EMD Millipore)+20 ng/mL Betacellulin (Thermo Fisher Scientific). Days 18, 20: S5+25 nM RA+1 μM XXI+10 μM Alk5i II+1 μM T3+20 ng/mL Betacellulin.
(§3) Control and experimental samples were collected from differentiations performed in parallel with hPSC cells obtained from the same maintenance batch. Treatments with 0.35 μM verteporfin (Sigma-Aldrich), 10 μM roscovitine (Sellekchem), or DMSO (Sigma-Aldrich) were performed at the last stages of the differentiation including stage 4 (days 9-14), stage 5 (days 14-18), and stage 6 (day 18-25, first 7 days) in ultra-low attachment six-well plates (Corning).
(§4) Differentiated cell clusters were dispersed into a single-cell suspension with TrypLE (Life Technologies) at RT, fixed with 4% paraformaldehyde at 4° C., washed three times in PBS+0.2% bovine serum albumin (Millipore)+0.1% saponin (Sigma), blocked for 30 min at 4° C. in PBS+5% donkey serum+0.1% saponin, incubated with primary antibodies overnight at 4° C., washed, and incubated with secondary antibodies for 1 h at RT. Stained, fixed cells were filtered through a 40-μm nylon mesh into flow cytometry tubes (BD Falcon) and were analyzed for relevant stage-specific marker expression using LSR II flow cytometers (BD Biosciences) and FlowJo for the data analysis. Samples stained with secondary antibodies only were used to gate on cells that are negative and accurately identified cells expressing the markers included in the analysis. For shRNA-infected samples, only infected GFP+ cells were included in the analysis (approximately in 30-40% of all cells). To quantify incorporation of EdU and estimate levels of proliferation, cells pulsed with 10 μM EdU for 4 h were dissociated as described above unless stated otherwise. The Click-IT EdU flow cytometry kit (Invitrogen) was used to detect EdU incorporation following the manufacturer's protocol with minor modifications.
The total RNA was isolated using the Direct-ZOL Miniprep kit (Zymo Research), and RNA was stored at −80° C. in RNA storage solution (Invitrogen) until subsequent analysis. […] Gene expression levels were determined with NanoString nSolver software with default parameters and normalized with the expression of five housekeeping genes (ITCH, RPL15, RPL19, TCEB1, and UBE2D3). […]

[2] = tested on: hPSC-derived multipotent pancreatic progenitors (MPPs); assay type: cell-based, human; conditions: 0.35 μM verteporfin during stage 4, vs DMSO
Procedure: as §1
Control and experimental samples were collected from differentiations performed in parallel with hPSC cells obtained from the same maintenance batch. […]
as §4, with “Samples stained with secondary antibodies only were used to gate on cells that are negative and accurately identified cells expressing the markers included in the analysis. For shRNA-infected samples, only infected GFP+ cells were included in the analysis (approximately in 30-40% of all cells).” left out, “The Click-IT EdU flow cytometry kit (Invitrogen) was used to detect EdU incorporation following the manufacturer's protocol with minor modifications.” left out

[3] = tested on: stem cell-derived β cells (SC-β cells); experiment: SC-β cell differentiation assayed at end of stage 6 (stage 6, day 14), flow cytometry; assay type: cell-based, human
Procedure: as §1, §2
Stage 6 (3: Days 21-35 (change every other day): S3 media. In the final stage, cells were analyzed between 28 and 35 days of the protocol.
as §3
For infection, cell clusters collected from spinner flask suspension cultures were dissociated in Accutase (StemCell Technologies) for 10 min, followed by mechanical dissociation and centrifugation at 230 g for 5 min at room temperature (RT). Cell pellets were resuspended at a density of 2.5 million cells/mL in the stage-matched medium with polybrene reagent (Santa Cruz) at 8 μg/mL. Single-cell suspensions were combined with concentrated lentiviral particles and plated on ultra-low attachment six-well plates on a rocker plate set at 70 rpm in a 37° C. incubator, 5% CO2, and 100% humidity. Feeding schedule was followed depending on the stage of differentiation as described above.
as §4

SC-β cells = experiment: Glucose-stimulated insulin secretion (GSIS) in vitro; assay type: cell-based, human
Procedure: Approximately 1×10^6 SC-β cells in clusters were washed with Krebs buffer and incubated in low (2.8 mM) glucose Krebs in cell culture inserts (Millicell) to starve cells and remove residual insulin at 37° C. for 1 h. Clusters were washed and incubated in low glucose Krebs for 1 h and the supernantant was collected. They were then transferred to high (20 mM) glucose, incubated for 1 h and the supernatant was collected. For sequential GSIS challenges, this sequence of low- and high-glucose stimulations was repeated twice. At the end, clusters were incubated in 2.8 mM glucose+30 mM KCl Krebs (depolarization challenge) for 1 h and the supernatant was collected. Clusters were dispersed into single cells using TrypLE and cell number was estimated by a Vi-Cell counter (Beckman Coulter). Insulin concentration was determined for supernatant samples using the Human Ultrasensitive Insulin ELISA (ALPCO Diagnostics). Protein extraction was performed with the M-PER extraction reagent (Thermo Scientific), and insulin content was measured for each sample using the human Ultrasensitive Insulin ELISA kit. Insulin secretion levels were normalized to total insulin content for each sample. Stimulation indexes were calculated as a ratio of insulin secretion at high glucose (20 mM) relative to the basal secretion (2.8 mM glucose).

SC-β cell grafts = experiment: Mouse transplantation analysis of SC-β cell grafts under the kidney capsule; assay type: in vivo, immunodeficient SCID-beige mice
Procedure: Cell clusters were collected at the end of each of the differentiation stages and fixed with 4% paraformaldehyde for 1 h at RT, washed in 30% sucrose, embedded in OCT compound (Tissue-Tek) and sectioned for histological analysis. Clusters were blocked with PBS+ 0.1% Triton X-100 (VWR)+5% donkey serum (Jackson Immunoresearch) for 30 min at RT, incubated with primary antibodies overnight at 4° C., washed, and incubated with secondary antibodies for 1 h at RT. Stained clusters were washed and mounted in Flouromount-G (Invitrogen), covered with coverslips, and sealed with nail polish. Images were taken using a Zeis Axio Imager.Z2 and Apotome.2. Image analysis was performed with ImageJ. To estimate the relative proportion of cells in the graft, four tissue sections from different areas in the graft were imaged, and the relative proportions of relevant cell types were quantified as a percent of cells positive for the relevant marker of the total number DAPI nuclei. […]
Dissociated SC-β cells were transplanted into the kidney capsule of immunodeficient SCID-beige mice (Jackson Laboratory), aged 8-10 weeks. […] Wound clips were removed 10 days after surgery and mice were monitored twice a week.
Mice were then analyzed for graft function at various time points by performing in vivo [3]. […]

Row | Molecule | differentiation of MPPs into NGN3+ endocrine progenitors (in words) ([1]; 10 μM roscovitine at stage 5, stage 5, day 4, compared with the verteporfin effect) | CHGA+/NKX6-1+ endocrine progenitor cells by the end of stage 5 ([1]; treatment during stage 5) | proportion of MPPs coexpressing the proliferation marker Ki67 ([2]; PDX1/Ki67 at end of stage 4) | number of NKX6.1+ progenitors compared with control differentiations ([2]; PDX1/NKX6.1 co-positive cells at end of stage 4) | proportion of NGN3+ endocrine progenitors ([1]; treatment during stage 5, assayed at stage 5, day 4, DMSO control 6.4±0.52%) [%] | proportion of C-peptide+/NKX6.1+ β cells ([3]; 0.35 μM verteporfin, end of stage 6, control 27.5±4.2%) [%] | glucagon+/C-peptide- alpha cells ([3]; 0.35 μM verteporfin, end of stage 6, vs control) | effect on SC-endocrine and β-cell differentiation in other hPSC cell lines ([3]; 1016 and 13B iPSC lines, C-peptide/NKX6.1 and CHGA/NKX6.1 at stage 6 day 14) | proportion of SOX9+ ductal-like progenitor cells ([3]; treatment during endocrine and β-cell differentiation stages, end of stage 6, vs control) | proportion of Ki67+ proliferating cells ([3]; verteporfin during endocrine and β-cell differentiation stages, end of stage 6, vs control) | impaired endocrine differentiation upon YAPS6A overexpression ([3]; verteporfin treatment of YAPS6A-overexpressing cells, C-peptide/NKX6.1 at stage 6 day 14) | levels of insulin secretion per total insulin content at 2.8 mM glucose, 20 mM glucose, and 30 mM KCl (SC-β cells; SC-β cells differentiated with verteporfin vs DMSO control) | insulin secretion at high glucose over low glucose in sequential glucose stimulations (SC-β cells; verteporfin during stages 5 and 6, 20 mM vs 2.8 mM glucose) | stimulation indexes (insulin secretion at 20 mM relative to 2.8 mM glucose) (SC-β cells; verteporfin-treated vs control endocrine cells) | proportion of SOX9+ cells in the grafts (SC-β cell grafts; cells differentiated in the presence of verteporfin, 12-week post transplantation, SOX9+ of DAPI+, control grafts ~17%) [%] | in vivo glucose-stimulated human insulin secretion (SC-β cell grafts; grafts of cells differentiated in the presence of verteporfin, serum human insulin before and 30 min after glucose injection, 8 weeks post transplantation)
1 | CC[C@H](CO)Nc1nc(NCc2ccccc2)c2ncn(C(C)C)c2n1 [roscovitine] | did not have the same effect | not observed |  |  |  |  |  |  |  |  |  |  |  |  |  | 
2 | verteporfin |  | increase | twofold decrease | significant decrease | 12.1±2 | 38.6±3.9 | modest but significant increase | robust and independent of the genetic background | decrease | decrease | rescued | significantly higher | increase in insulin secretion at high glucose over low glucose | no statistically significant differences | 3.1 | robust

— patent US20230128770A1, “COMPOSITIONS AND METHODS FOR ENHANCING DIFFERENTIATION OF STEM CELL-DERIVED BETA CELLS” (President and Fellows of Harvard College, priority 2019, published 2023)
